In patent US20070123514A1, “Methods of modulating neurotrophin-mediated activity” (PainCeptor Pharma Corporation, priority 2005, published 2007):

Experiments:
[1] = tested on: Mice; assay: Writhing test (acetic acid abdominal contraction test); type: in vivo, mouse
Procedure: The acetic acid abdominal contraction test (Martinez et al., Pain 1999; 81: 179) was used to determine the efficacy of different compounds in a model of acute visceral chemical nociception. […] Compound or vehicle was administered (i.p. or s.c.) 15-45 minutes prior to the acetic acid injection. Each episode of writhing is characterized by a lengthwise stretching of the torso with a concomitant arching of the back.
(§1) Statistical analysis was performed using Prism™ 4.01 software package (GraphPad, San Diego, Calif., USA). The difference in response levels between treatment groups and control vehicle group was analyzed using an ANOVA followed by Bonferroni's method for post-hoc pair-wise comparisons. A p value <0.05 was considered to be significant
Animals were treated with vehicle (VEH) or Compound 5 (100 mg/kg i.p.; CMP) 10-20 minutes before the intraperitoneal injection of acetic acid, as described above.

[2] = tested on: PC12 (TrkA & p75); assay: 125I-NGF binding displacement in PC12 cells; set-up: species or system rat; conditions: PC12 cells expressing TrkA and p75; result in words
Procedure: The method for acquiring the PC12 data described in Table 1 is described herein in Example 1. Each experiment was done at least once with an n value of 4 for each data point. (n/a=not acquired)
All cells were incubated at 37° C. in 5% CO2. PC12 cells were maintained in RPMI-1640 medium supplemented with 10% fetal bovine serum (FBS). A875 human melanoma cells were maintained in DMEM with 10% FBS. HEK 293 cells were stably transfected with human TrkA plasmid (see below) and maintained in DMEM with 10% FBS and G418 (600 μg/mL) for selection.
NGF binding was evaluated using methods familiar to those who are skilled in the art. Briefly, cells expressing one or both NGF receptors (PC12: TrkA+p75; A875: p75 alone; HEK_trkA: TrkA alone) were harvested by replacing the medium with calcium-magnesium free balanced salt (Grey's) solution and incubating at 37° C. for 15 min. For NGF binding, cells were resuspended at a concentration of 2×10^6 cells/mL in HEPES-Krebs-Ringer (HKR) buffer (10 mM HEPES; 125 mM NaCl; 4.8 mM KCl; 1.3 mM CaCl2; 1.2 mM MgSO4; 1.2 mM KH2PO4; 1 mg/ml BSA; 1 mg/ml glucose; pH 7.4) and exposed to ^125I-NGF (˜0.1 nM) in the presence or absence of varying concentrations of the compound. Non-specific binding was determined for reference by incubating ^125I-NGF with an excess of non-radioactive NGF in the abence of compound. Following a two-hour incubation period at 4° C., ^125I-NGF bound to the cells was quantified in a gamma radiation counter following separation from unbound NGF by filtration or centrifugation through glycerol (10% in HKR). Inhibition of binding was calculated as a percent of the specific binding (calculated as the differential between ^125I-NGF binding in the absence and presence of an excess of non-radioactive NGF without compound). Dose-response inhibition curves were typically generated with seven concentrations of a given compound, with three replicates for each concentration. For most compounds, multiple dose-response curves were generated.
The IC50 data shown in Table 1 were acquired using the procedure described herein using PC12 cells.

[3] = tested on: Male Sprague-Dawley rats; assay: Formalin model of acute tonic pain; type: in vivo, rat
Procedure: Male Sprague-Dawley rats were given a subcutaneous injection of 50 μl of 2.5% formalin into the plantar surface of one hindpaw using a 27 gauge syringe needle, and nociceptive responses were measured for the next 60 min. Compound or vehicle was administered (ip. or s.c.) 15-45 minutes prior to the formalin injection. A nociceptive score was determined for each 5 min block by measuring the amount of time spent in each of four behavioral categories: 0, the injected hindpaw is indistinguishable from that of the contralateral paw; 1, the injected paw has little or no weight placed on it; 2, the injected paw is elevated and is not in contact with any surface; 3, the injected paw is licked, bitten, or shaken. A weighted nociceptive score, ranging from 0 to 3 was calculated by multiplying the time spent in each category by the category weight, summing these products, and dividing by the total time for each 5 min block of time (Coderre et al., Pain 1993; 54: 43). On the basis of the resulting response patterns, 2 phases of nociceptive behaviour were identified and scored: first phase (P1; 0-5 min) and second phase (P2; 11-40 min).
as §1, with “significant.” for “significant”
Animals were treated with vehicle (VEH) or Compound 5 (50 mg/kg i.p.; CMP) 10-20 minutes before the intraplantar injection of 2.5% formalin, as described above.

[4] = tested on: NGF-induced neurite outgrowth, PC12 cells; assay: NGF-induced neurite outgrowth of PC12 cells; type: cell-based, rat; conditions: 25 μM compound, 5 ng/ml NGF, mean±SEM, n=8; no inhibition=100%, maximal inhibition=0%
Procedure: This assay was run as a further functional marker of NGF antagonism and takes advantage of the differentiation of PC12 cells (neurite outgrowth) induced by NGF. Cultures of PC12 cells were grown on Terasaki plates pre-coated with poly-D-lysine. Cells were exposed to NGF (1-50 (preferably 5) ng/ml) to induce neurite outgrowth as described elsewhere [L A Greene & A S Tischler, Establishment of a noradrenergic clonal line of rat adrenal pheochromocytoma cells which respond to nerve growth factor, Proc Natl Acad Sci USA. 1976 July; 73(7): 2424-2428]. In addition to NGF, cells were exposed to varying concentration of the compounds or vehicle. Following 4 days of exposure to NGF in the presence or absence of compound, neurite outgrowth was quantified. A neurite was scored if its caliber from origin to terminal was approximately the same and the length was equal to or greater than 1.5 the cell body diameter. The number of neurite bearing cells per total number of viable cells was calculated for each condition; the number of cells with neurites in the presence of NGF (without compound exposure) was considered to represent maximal (100%) outgrowth, to which the inhibitory effect of compounds of the invention on NGF-induced outgrowth was compared.

In the case of `O=C(O)c1ccc(Cl)c(N2C(=O)c3cccc4cc([N+](=O)[O-])cc(c34)C2=O)c1` [Compound 5, 4-Chloro-3-(5-nitro-1,3-dioxo-1H,3H-benzo[de]isoquinolin-2-yl)-benzoic acid], the “chemically-induced abdominal contractions (number in 30 minutes)” value ([1]; 100 mg/kg i.p. 10-20 min before acetic acid, vehicle 58±3, n=6) is reported as 14±6, the “antinociceptive effect in the Writhing Test” value ([1]; 100 mg/kg i.p., result in words, p<0.001 vs vehicle, 100 mg/kg) is reported as “significant antinociceptive effects” and the “blocking of NGF binding (dose-response curve)” value [2] is reported as “effectively block NGF binding”. For the same molecule, the “formalin-induced spontaneous responses, Phase I” value ([3]; 50 mg/kg i.p. 10-20 min before 2.5% formalin, vehicle 148±9, n=8) was 59±15, the “formalin-induced spontaneous responses, Phase II” value ([3]; 50 mg/kg i.p. 10-20 min before 2.5% formalin, vehicle 180±6, n=8) was 61±19 and the “antinociceptive effect in the Formalin Test” value ([3]; 50 mg/kg i.p., result in words, p<0.001 vs vehicle, 50 mg/kg) was “significant antinociceptive effects”. The “NGF-induced neurite outgrowth, % of NGF-only control” value [4] was 65%±17%.
